Laboratory results as given in patent publication US20260000596A1, “SEMI-SYNTHETIC RHAMNOLIPIDS” (The Procter & Gamble Company, priority 2024, published 2026).
≈ marks a conversion by molar mass, not a printed value. Where two headings read alike, the source gives them in different places.

Tests used:
Assay type in all cases: cell-based
[1] = system: Escherichia coli ATCC 8739; experiment: Minimal Kill Concentration Assay (MKCA), E. coli; settings: 20-minute contact time; for MBC: Escherichia coli, ATCC8739, 20 min, read-out: E. coli MKC (ppm)
Method: (§1) The MKC assay is a 96 well plate method to determine the minimum concentration of a test material or composition needed to kill Gram-negative and Gram-positive bacteria (Escherichia coli ATCC 8739 and Staphylococcus aureus ATCC 6538, respectively). The bacterial suspensions are prepared from 10× freezer stocks with 15% glycerol. The freezer stocks are centrifuged at 13,000×g (Eppendorf Centrifuge […] No. 541705483) for 1 minute. The supernatant is removed, and the cell pellet is resuspended in 1 mL saline (Sodium chloride solution 0.9%, Cytiva REF: Z1376), and then transferred to 9 mL saline. The target cfu/ml is 10^8, which is confirmed via serial diluting and plating on TSA plates (Tryptic Soy Agar-Sigma-Aldrich Cat #22091). Then 50 μL (25 μL if low on test materials) of bacteria is added to each well of a 96 well 0.5 mL V-Bottom plate (Greiner bio-one REF: 786201) to make a bacteria plate, one separate plate for each bacterium. The dilutions of the test compounds are prepared in a separate 96 well plate. The test compounds are tested at six dilutions in duplicates or with no replication diluted across the entire plate. The test compounds are prepared in Dimethyl Sulfoxide (Sigma Aldrich GR ACS Cat. No: MX1458-6) or sterile water at 2× the intended test concentration, and then serially diluted in the appropriate vehicle 1:2 across the plate using a multichannel. 50 μL (25 μL if low on test materials) from the test compound plate is added to each well in the bacteria plate all at once using an Integra VIAFLOW 96 channel pipette (Model: VIAFLO 96) and the Integra 300 μL Head (Part No. 6103). With addition of the 2× compounds bacteria plate, the compounds are diluted to a 1× test concentration. The addition of the test compounds to the bacteria wells starts the 20-minute contact time. The plates are mixed well using a Mix-Mate (Eppendorf SE). After 20 minutes, 1 μL from each well of the bacteria plate is transferred to premade Tryptic Soy Agar (TSA) plates (OmniTray Cell Culture Treated w/Lid Sterile, Cat. No: 165218) for spot plating using the Integra VIAFLOW 96 with the Integra 12.5 μL head (Part No. 6101). Then 4 μL from each well of the bacteria/compound plate is transferred to another 96 well plate containing 36 μL of neutralizer broth Modified Letheen Broth (BD Difco Letheen Broth, Modified REF 263010). The contact time is stopped at 20 minutes once the compound plate is neutralized. The plates are mixed well using a Mix-Mate and then 1 μL of the neutralizer+sample mix is transferred to a TSA OmniTray plate using the Integra VIAFLOW and Integra 12.5 μL head. The TSA spot plates are then incubated overnight for 20 hours at 37° C. in an Incubator. This process is done for both bacteria species. After overnight incubation, the plates are removed from the incubator and the results recorded by observing which dilutions had bacterial kill/growth. The last dilution that had kill for both replicates is recorded as the MKC. A positive control of Benzalkonium chloride (Sigma Aldrich Cat. No.: 12060-5G) and vehicle controls are always included in the test.

[2] = system: Staphylococcus aureus ATCC 6538; experiment: Minimal Kill Concentration Assay (MKCA), S. aureus; settings: 20-minute contact time; for minimal kill concentration (20-minute contact): Staphylococcus aureus, ATCC6538, 20 min, read-out: S. aureus MKC (ppm)
Method: as §1

[3] = system: Staphylococcus aureus ATCC #6538; experiment: Minimum Inhibitory Concentration (MIC) Assay with Minimum Biocidal Concentration (MBC); settings: for MIC / MBC: Staphylococcus aureus, ATCC6538, 24 h; for MIC: read-out: S. aureus MIC (ppm); for S. aureus MIC (ppm) / S. aureus MBC (ppm): Table 1.5; for S. aureus MIC (ppm): >=50% inhibition, 24 hrs at 35° C.; for S. aureus MBC (ppm): no visible growth; for MBC: read-out: S. aureus MBC (ppm)
Method: The Minimum Inhibitory Concentration (MIC) Assay is a 96-well high throughput method that determines the minimum concentration of an active required to inhibit the growth of microorganisms. Organism preparation: Compounds were evaluated against the following microorganisms: Staphylococcus aureus ATCC #6538 (American Type Culture Collection, Manassas, Virginia, USA). To prepare bacteria solutions, bacteria were streaked on Tryptic Soy Agar (TSA) and incubated at 30-35° C. for 18-24 hrs. Confluent growth was transferred to saline (0.85% NaCl) and turbidometrically adjusted to a target concentration of 10^7-10^8 CFU/ml. This inoculum solution was further diluted 1:1000 in Tryptic Soy Broth (pH 7) for assay use. Assay: Two-fold serial dilutions were prepared in Dimethylsulfoxide (DMSO, Thermo Scientific Pierce DMSO, Sequencing Grade) or sterile water for each test sample. In a sterile 96-well plate, each dilution was further diluted in broth inoculum such that each well contained 5% dilution and 95% broth inoculum. Bacteria plates were incubated on an orbital shaker (Heidolph Titramax 1000 Vibrating Platform Shaker, 200-300 rpm) for 24±2 hrs at 35° C. After incubation, the optical density (OD) of each well was measured in a spectrophotometer (Victor Nivo Multimode Plate Reader) at 600 nm. […] To determine the Minimum Biocidal Concentration (MBC), 2 ul from each well was pipetted onto neutralizing agar (Modified Letheen Agar with Tween) and incubated for 24 hrs at 30-35° C. The MBC was determined as the most dilute concentration with no visible growth.

[4] = Table 4, derivatized rhamnolipids, solvent DMSO

CCCCCCCC(O)CC(=O)O (racemic) [(±)-3-Hydroxydecanoic acid, reference compound]
MBC ([1]; Table 1.4b, solvent water): 753 µg/mL (≈ 4 mM) | minimal kill concentration (20-minute contact) ([2]; Table 1.4b, solvent water): 753 µg/mL | MIC [3]: 1130 µg/mL (≈ 6 mM)

CCCCCC(O)CC(=O)O (racemic) [(±)-3-Hydroxyoctanoic acid, reference compound]
MBC ([1]; Table 1.4b, solvent water): > 641 µg/mL | minimal kill concentration (20-minute contact) ([2]; Table 1.4b, solvent water): > 641 µg/mL

CCCCCCCCCC(O)CC(=O)O (racemic) [DL-β-Hydroxylauric acid, reference compound]
E. coli MKC (ppm) ([1]; Table 1.4b, solvent water): >865 ppm | S. aureus MKC (ppm) ([2]; Table 1.4b, solvent water): >865 ppm | S. aureus MIC (ppm) ([3]; solvent DMSO): 325 ppm | S. aureus MBC (ppm) ([3]; solvent DMSO): 650 ppm

CCCCCCCCCCCC(O)CC(=O)O (racemic) [DL-β-Hydroxymyristic acid, reference compound]
E. coli MKC (ppm) ([1]; Table 1.4b, solvent DMSO): 122 ppm | S. aureus MKC (ppm) ([2]; Table 1.4b, solvent DMSO): 244 ppm | S. aureus MIC (ppm) ([3]; solvent DMSO): 365 ppm | S. aureus MBC (ppm) ([3]; solvent DMSO): 731 ppm

CCCCCCCCCCCCCC(O)CC(=O)O (racemic) [DL-β-Hydroxypalmitic acid, reference compound]
E. coli MKC (ppm) ([1]; Table 1.4b, solvent DMSO): 136 ppm | S. aureus MKC (ppm) ([2]; Table 1.4b, solvent DMSO): >1090 ppm | S. aureus MIC (ppm) ([3]; solvent DMSO): 102 ppm | S. aureus MBC (ppm) ([3]; solvent DMSO): 204 ppm

CCCCCCCC(CC(=O)NC)O[C@@H]1O[C@@H](C)[C@H](O)[C@@H](O)[C@H]1O[C@H]1O[C@@H](C)[C@@H](O)[C@H](O)[C@@H]1O (stereo partly drawn) [3-(((2R,3R,4R,5R,6S)-4,5-dihydroxy-6-methyl-3-(((2R,3S,4S,5S,6S)-3,4,5-trihydroxy-6-methyltetrahydro-2H-pyran-2-yl)oxy)tetrahydro-2H-pyran-2-yl)oxy)-N-methyldecanamide]
MBC [1, 4]: > 4940 µg/mL | minimal kill concentration (20-minute contact) [2, 4]: > 4940 µg/mL | MBC ([3]; Table 5, solvent DMSO): > 1970 µg/mL | MIC ([3]; Table 5, solvent DMSO): > 1970 µg/mL

CCCCCCCC(CC(=O)NCC(CC)CCCC)O[C@@H]1O[C@@H](C)[C@H](O)[C@@H](O)[C@H]1O[C@@H]1O[C@@H](C)[C@H](O)[C@@H](O)[C@H]1O (stereo partly drawn) [3-(((2R,3R,4R,5R,6S)-4,5-dihydroxy-6-methyl-3-(((2S,3R,4R,5R,6S)-3,4,5-trihydroxy-6-methyltetrahydro-2H-pyran-2-yl)oxy)tetrahydro-2H-pyran-2-yl)oxy)-N-(2-ethylhexyl)decanamide]
MBC [1, 4]: > 5920 µg/mL | minimal kill concentration (20-minute contact) [2, 4]: 2960 µg/mL | MBC ([3]; Table 5, solvent DMSO): 592 µg/mL (≈ 1 mM) | MIC ([3]; Table 5, solvent DMSO): 296 µg/mL (≈ 0.5 mM)

CCCCCCCC(CC(=O)NCCO)O[C@@H]1O[C@@H](C)[C@H](O)[C@@H](O)[C@H]1O[C@@H]1O[C@@H](C)[C@H](O)[C@@H](O)[C@H]1O (stereo partly drawn) [3-(((2R,3R,4R,5R,6S)-4,5-dihydroxy-6-methyl-3-(((2S,3R,4R,5R,6S)-3,4,5-trihydroxy-6-methyltetrahydro-2H-pyran-2-yl)oxy)tetrahydro-2H-pyran-2-yl)oxy)-N-(2-hydroxyethyl)decanamide]
MBC [1, 4]: > 5240 µg/mL | minimal kill concentration (20-minute contact) [2, 4]: > 5240 µg/mL | MBC ([3]; Table 5, solvent DMSO): > 2090 µg/mL | MIC ([3]; Table 5, solvent DMSO): > 2090 µg/mL

CCCCCCCC(CC(=O)N(C)OC)O[C@@H]1O[C@@H](C)[C@H](O)[C@@H](O)[C@H]1O[C@@H]1O[C@@H](C)[C@H](O)[C@@H](O)[C@H]1O (stereo partly drawn) [3-(((2R,3R,4R,5R,6S)-4,5-dihydroxy-6-methyl-3-(((2S,3R,4R,5R,6S)-3,4,5-trihydroxy-6-methyltetrahydro-2H-pyran-2-yl)oxy)tetrahydro-2H-pyran-2-yl)oxy)-N-methoxy-N-methyldecanamide]
MBC [1, 4]: > 5240 µg/mL | minimal kill concentration (20-minute contact) [2, 4]: > 5240 µg/mL | MBC ([3]; Table 5, solvent DMSO): > 2090 µg/mL | MIC ([3]; Table 5, solvent DMSO): 2090 µg/mL (≈ 4 mM)

CCCCCCCC(CC(=O)N(C)C)O[C@@H]1O[C@@H](C)[C@H](O)[C@@H](O)[C@H]1O[C@@H]1O[C@H](C)C(O)[C@@H](O)[C@H]1O (stereo partly drawn) [3-(((2R,3R,4R,5R,6S)-4,5-dihydroxy-6-methyl-3-(((2S,3R,4R,6R)-3,4,5-trihydroxy-6-methyltetrahydro-2H-pyran-2-yl)oxy)tetrahydro-2H-pyran-2-yl)oxy)-N,N-dimethyldecanamide]
MBC [1, 4]: > 5070 µg/mL | minimal kill concentration (20-minute contact) [2, 4]: > 5070 µg/mL | MBC ([3]; Table 5, solvent DMSO): > 508 µg/mL | MIC ([3]; Table 5, solvent DMSO): > 508 µg/mL

CCCCCCCC(CC(=O)O)O[C@@H]1O[C@@H](C)[C@H](O)[C@@H](O)[C@H]1O[C@@H]1O[C@H](C)C(O)[C@@H](O)[C@H]1O (stereo partly drawn) [3-(((2R,3R,4R,5R,6S)-4,5-dihydroxy-6-methyl-3-(((2S,3R,4R,6R)-3,4,5-trihydroxy-6-methyltetrahydro-2H-pyran-2-yl)oxy)tetrahydro-2H-pyran-2-yl)oxy)decanoic acid]
MBC [1, 4]: > 4810 µg/mL | minimal kill concentration (20-minute contact) [2, 4]: > 4810 µg/mL | MBC ([3]; Table 5, solvent DMSO): > 1920 µg/mL | MIC ([3]; Table 5, solvent DMSO): > 1920 µg/mL

CCCCCCCCC[C@@H](O)CC(=O)O [(3R)-3-hydroxydodecanoic acid, reference compound]
MBC ([1]; Table 1.4b, solvent water): > 865 µg/mL | minimal kill concentration (20-minute contact) ([2]; Table 1.4b, solvent water): 865 µg/mL

CCCCCCCC(CC(=O)N(CCCC)CCCC)O[C@@H]1O[C@@H](C)[C@H](O)[C@@H](O)[C@H]1O[C@@H]1O[C@@H](C)[C@H](O)[C@@H](O)[C@H]1O (stereo partly drawn) [N,N-dibutyl-3-(((2R,3R,4R,5R,6S)-4,5-dihydroxy-6-methyl-3-(((2S,3R,4R,5R,6S)-3,4,5-trihydroxy-6-methyltetrahydro-2H-pyran-2-yl)oxy)tetrahydro-2H-pyran-2-yl)oxy)decanamide]
MBC [1, 4]: 5920 µg/mL (≈ 10 mM) | minimal kill concentration (20-minute contact) [2, 4]: 2960 µg/mL | MBC ([3]; Table 5, solvent DMSO): 296 µg/mL (≈ 0.5 mM) | MIC ([3]; Table 5, solvent DMSO): 296 µg/mL (≈ 0.5 mM)

CCCCCCCC(CC(=O)NCCO[Si](C)(C)C(C)(C)C)O[C@@H]1O[C@@H](C)[C@H](O)[C@@H](O)[C@H]1O[C@@H]1O[C@@H](C)[C@H](O)[C@@H](O)[C@H]1O (stereo partly drawn) [N-(2-((tert-butyldimethylsilyl)oxy)ethyl)-3-(((2R,3R,4R,5R,6S)-4,5-dihydroxy-6-methyl-3-(((2S,3R,4R,5R,6S)-3,4,5-trihydroxy-6-methyltetrahydro-2H-pyran-2-yl)oxy)tetrahydro-2H-pyran-2-yl)oxy)decanamide]
MBC [1, 4]: > 6370 µg/mL | minimal kill concentration (20-minute contact) [2, 4]: > 6370 µg/mL | MBC ([3]; Table 5, solvent DMSO): 637 µg/mL (≈ 0.999 mM) | MIC ([3]; Table 5, solvent DMSO): 319 µg/mL (≈ 0.5 mM)

CCCCCCCC(CC(=O)NC1CCCCC1)O[C@@H]1O[C@@H](C)[C@H](O)[C@@H](O)[C@H]1O[C@@H]1O[C@@H](C)[C@H](O)[C@@H](O)[C@H]1O (stereo partly drawn) [N-cyclohexyl-3-(((2R,3R,4R,5R,6S)-4,5-dihydroxy-6-methyl-3-(((2S,3R,4R,5R,6S)-3,4,5-trihydroxy-6-methyltetrahydro-2H-pyran-2-yl)oxy)tetrahydro-2H-pyran-2-yl)oxy)decanamide]
MBC [1, 4]: > 5620 µg/mL | minimal kill concentration (20-minute contact) [2, 4]: > 5620 µg/mL | MBC ([3]; Table 5, solvent DMSO): > 2250 µg/mL | MIC ([3]; Table 5, solvent DMSO): > 2250 µg/mL
